Results published in US7973218B2, “Methods and compositions for controlling weeds” (Pioneer Hi-Bred International, Inc., priority 2005, dated 2011).
Read-outs that look alike come from different tables or passages of the source.

What was measured:
[1] = test system: Parent elite stiff stalk inbred corn; assay: Preemergence herbicide application to potted corn (fresh weight, visual injury); assay type: in vivo; conditions: for Crop visual injury at 200 g/ha: Zea mays, pre-emergence, 672 h, read-out: % Visual Injury; for Fresh Weight: fresh shoots weighed 4 weeks after treatment, untreated 36.7 g
[2] = test system: Heterozygous GAT-HRA corn; assay: as above; assay type: in vivo; conditions: for Crop visual injury at 200 g/ha: Zea mays, pre-emergence, 672 h, read-out: % Visual Injury; for Fresh Weight: fresh shoots weighed 4 weeks after treatment, untreated 47.0 g
[3] = test system: Parent elite stiff stalk inbred corn; assay: Postemergence herbicide application to potted corn (fresh weight, visual injury); assay type: in vivo; conditions: for Fresh Weight: weighed 2 weeks after treatment, untreated 76.4 g; for % visual injury to corn at 200 g/ha / % Visual Injury: 0% no injury, 100% plant death
[4] = test system: Heterozygous GAT-HRA corn; assay: as above; assay type: in vivo; conditions: for Visual crop injury (%) at 200 g/ha / % Visual Injury: 0% no injury, 100% plant death; for Fresh Weight: weighed 2 weeks after treatment, untreated 98.8 g
GAT-HRA maize = assay: Postemergence herbicide spray of maize at V2 stage, injury evaluated 10-14 days after; assay type: in vivo; conditions: 200 g ai/ha (metsulfuron-methyl 35 g ai/ha)
Method: GAT-HRA maize plants were evaluated for tolerance to glyphosate and other herbicides. One protocol used in this evaluation was as follows. At the V2 stage (Ritchie and Hanway (1982), “How a corn plant develops” Spec. Rep. 48. (Coop. Ext. Ser., Iowa State Univ., Ames, Iowa)), plant heights were measured and herbicides were applied by spray application. Ten to fourteen days after the spray application, the transgenic plants were evaluated for injury symptoms and measured for plant height again in order to determine plant growth rates.
Plants were then evaluated at various times after treatment, such as 10 or 14 days after treatment. […] Leaf samples were taken from GAT-HRA plants and used in quantitative PCR analysis and other analyses to determine the number and arrangement of copies of the GAT and HRA polynucleotides that had been integrated into the plant genome.
Other protocols for evaluation included treatment with imidazolinone herbicides, such as the commercial herbicide Lightning® (a combination of imazapyr and imazethapyr), which was applied to GAT-HRA maize at the V2 leaf stage at four times the field label rate (250 g ai/ha). […] Another protocol for evaluation included treatment with imidazolinone herbicides as well as sulfonylurea and glyphosate herbicides. In these tests, GAT-HRA maize was treated with various combinations of Lightning® (imazapyr and imazethapyr), Basis® (rimsulfuron and thifensulfuron-methyl) and WeatherMAX® (glyphosate potassium salt). These herbicides were applied at the V2 stage as follows: Lightning® at twice the field label rate (1.8 oz ai/ac (133 ml ai/ha)), Basis® at twice the field label rate (0.5 oz ai/ac (36.9 ml ai/ha)) and WeatherMax® at four times the field label rate (43 oz ai/ac). Fourteen days after the treatment application, the plants were evaluated. […] “Field label rate” refers to the application rate specified on the product label. Where the application rate for a particular situation is a range of rates, as used herein, the term “field label rate” indicates the upper end of that range. […]

control maize = assay: as above; assay type: in vivo; conditions: 200 g ai/ha (metsulfuron-methyl 35 g ai/ha)
[5] = test system: Hairy Fleabane (Conyza bonariensis), glyphosate sensitive biotype; assay: Control of hairy fleabane by glyphosate, metsulfuron-methyl and two additives; assay type: in vivo; conditions: 10-15 leaf stage, 200 L ha^−1
Method: This example included the same treatments as used in Example 11, except the treatments were carried out on a glyphosate sensitive biotype of Kleinskraalhans (Conyza bonariensis).

[6] = test system: non-glyphosate resistant ryegrass; assay: Control of ryegrass by glyphosate, metsulfuron-methyl and two additives; assay type: in vivo; conditions: metsulfuron-methyl (BRUSH-OFF) alone
Method: The example was conducted on non-glyphosate resistant ryegrass. As provided in Table 23, all treatments that included glyphosate [180 g a.i. L ha^−1 (0.5 L glyphosate (SCAT®))] plus metsulfuron-methyl (BRUSH-OFFS®) (5 and 10 g ha^−1) gave 100% control of the ryegrass.

[7] = test system: Soybeans comprising the lead GAT7 event and also having HRA; assay: Greenhouse test confirming the field trial (Example 6B); assay type: in vivo, soybean; conditions: GAT/HRA Soybeans
From the text: Example 6B provides greenhouse data that confirms the field trial data provided above in Example 6A. Soybeans comprising the lead GAT7 event and also having HRA were used in the studies.

[8] = preemergence, 200 g/ha, 0% no injury, 100% plant death, mean of four replications
[9] = preemergence, 200 g/ha, mean of four replications
[10] = 200 g/ha, mean of four replications
[11] = Zea mays, post-emergence, 200 g/ha, mean of four replications
[12] = Zea mays, post-emergence, 1870 g/ha

## CCOc1nc(F)cc2nc(S(=O)(=O)Nc3c(Cl)cccc3C(=O)OC)nn12 [Chloransulam-methyl, methyl 3-chloro-2-[[(5-ethoxy-7-fluoro-[1,2,4]triazolo [1,5-c]pyrimidin-2-yl)sulfonyl]amino]benzoate]
[1]; [8]
  Crop visual injury at 200 g/ha: 3%
[1]; [9]
  Fresh Weight: 5.5 g
[2]; [8]
  Crop visual injury at 200 g/ha: 3%
[3]; [10]
  Fresh Weight: 6.8 g
[3]; [11]
  % visual injury to corn at 200 g/ha: 96%
[4]; [11]
  Visual crop injury (%) at 200 g/ha: 3%

## COc1nn(C(=O)NS(=O)(=O)c2ccccc2OC(F)(F)F)c(=O)n1C [Flucarbazone Na^+, 4,5-dihydro-3-methoxy-4-methyl-5-oxo-N-[[2-(trifluoromethoxy)phenyl]sulfonyl]-1H-1,2,4-triazole-1-carboxamide]
[1]; [8]
  Crop visual injury at 200 g/ha: 100%
[1]; [9]
  Fresh Weight: 0.0 g
[2]; [8]
  Crop visual injury at 200 g/ha: 40%
[3]; [10]
  Fresh Weight: 3.1 g
[3]; [11]
  % visual injury to corn at 200 g/ha: 100%
[4]; [10]
  Fresh Weight: 86.0 g
[4]; [11]
  Visual crop injury (%) at 200 g/ha: 14%

## CP(=O)(O)CCC(N)C(=O)O (centres unmarked) [Glufosinate ammonium]
[3]; 1870 g/ha
  Fresh Weight: 2.4 g
[3]; [12]
  % visual injury to corn at 1870 g/ha: 99%
[4]; 1870 g/ha
  Fresh Weight: 112.3 g
[4]; [12]
  Visual crop injury (%) at 1870 g/ha: 1%

## CCOC(=O)c1ccccc1S(=O)(=O)NC(=O)Nc1nc(Cl)cc(OC)n1 [Chlorimuron-ethyl, ethyl 2-[[[[(4-chloro-6-methoxy-2-pyrimidinyl)amino]carbonyl]amino]sulfonyl]-benzoate]
GAT-HRA maize
  damage from the treatment: no significant damage
Control maize
  damage from the treatment: severely damaged or killed

## Imazamethabenz-methyl
[1]; [9]
  Fresh Weight: 36.2 g
[2]; [9]
  Fresh Weight: 48.5 g
[3]; [10]
  % Visual Injury: 11%
  Fresh Weight: 66.9 g
[4]; [10]
  % Visual Injury: 16%
  Fresh Weight: 95.0 g

## O=C(O)CNCP(=O)(O)O [glyphosate (ROUNDUP ®)]
[5]; glyphosate (ROUNDUP, 360 g a.i. L^−1) 0.5 L/ha
  Control (%): 12%

## COC(=O)c1ccc(I)cc1S(=O)(=O)NC(=O)Nc1nc(C)nc(OC)n1 [Iodosulfuron-methyl Na^+, methyl 4-iodo-2-[[[[(4-methoxy-6-methyl-1,3,5-triazin-2-yl)amino]carbonyl]amino]sulfonyl]benzoate]
[1]; [8]
  Crop visual injury at 200 g/ha: 92%
[2]; [8]
  Crop visual injury at 200 g/ha: 5%
[3]; [10]
  Fresh Weight: 3.5 g
[3]; [11]
  % visual injury to corn at 200 g/ha: 100%
[4]; [10]
  Fresh Weight: 95.0 g
[4]; [11]
  Visual crop injury (%) at 200 g/ha: 1%

## COC(=O)c1ccccc1S(=O)(=O)NC(=O)Nc1nc(C)nc(OC)n1 [Metsulfuron-methyl, methyl 2-[[[[(4-methoxy-6-methyl-1,3,5-triazin-2-yl)amino]carbonyl]amino]sulfonyl]benzoate]
GAT-HRA maize
  damage from the treatment: no significant damage
Control maize
  damage from the treatment: severely damaged or killed
[6]
  effect on its own: did nothing accept stunt the ryegrass plants slightly

## CCCOc1nn(C(=O)NS(=O)(=O)c2ccccc2C(=O)OC)c(=O)n1C [Propoxycarbazone Na^+, methyl 2-[[[(4,5-dihydro-4-methyl-5-oxo-3-propoxy-1H-1,2,4-triazol-1-yl)carbonyl]amino]sulfonyl]benzoate]
[1]
  Crop visual injury at 200 g/ha: 100%
[1]; [9]
  Fresh Weight: 0.6 g
[2]
  Crop visual injury at 200 g/ha: 100%
[3]; [10]
  Fresh Weight: 1.9 g
[3]; [11]
  % visual injury to corn at 200 g/ha: 100%
[4]; [11]
  Visual crop injury (%) at 200 g/ha: 9%

## CCc1cnc(C2=NC(C)(C(C)C)C(=O)N2)c(C(=O)O)c1 (centres unmarked) [Imazethapyr]
[7]; Rimsulfuron 0 + Imazethapyr 560 g ai/ha, Treatment # 4
  % Growth Reduction: −1%
[7]; Rimsulfuron 0 + Imazethapyr 1024 g ai/ha, Treatment # 5
  % Growth Reduction: 10%

## COC(=O)c1ccc(C(F)(F)F)nc1S(=O)(=O)NC(=O)Nc1nc(OC)cc(OC)n1 [Flupyrsulfuron-methyl Na^+, methyl 2-[[[[(4,6-dimethoxy-2-pyrimidinyl)amino]carbonyl]amino]sulfonyl]-6-(trifluoromethyl)-3-pyridinecarboxylate]
[1]; [8]
  Crop visual injury at 200 g/ha: 87%
[2]; [8]
  Crop visual injury at 200 g/ha: 90%
[3]; [10]
  Fresh Weight: 5.2 g
[3]; [11]
  % visual injury to corn at 200 g/ha: 95%
[4]; [11]
  Visual crop injury (%) at 200 g/ha: 4%

## COC(=O)c1ccccc1S(=O)(=O)NC(=O)Nc1nc(C)cc(C)n1 [Sulfometuron-methyl, methyl 2-[[[[(4,6-dimethyl-2-pyrimidinyl)amino]carbonyl]amino]sulfonyl]-benzoate]
[3]; [10]
  Fresh Weight: 2.0 g

## COC(=O)c1cccc(C)c1S(=O)(=O)NC(=O)Nc1nc(OCC(F)(F)F)nc(N(C)C)n1 [Triflusulfuron-methyl]
[1]; [9]
  Fresh Weight: 26.3 g
[2]; [9]
  Fresh Weight: 53.5 g
[3]; [10]
  % Visual Injury: 100%
  Fresh Weight: 2.1 g
[4]; [10]
  % Visual Injury: 8%
  Fresh Weight: 110.9 g

## COc1cc(OC)nc(Sc2cccc(Cl)c2C(=O)[O-])n1.[Na+] [Pyrithiobac Na^+]
[1]; [9]
  Fresh Weight: 0.0 g
[3]; [10]
  % Visual Injury: 100%
  Fresh Weight: 2.8 g
[4]; [10]
  % Visual Injury: 9%

## COC(=O)c1ccccc1S(=O)(=O)NC(=O)Nc1nc(C)nc(OC)n1 [Metsulfuron-methyl (BRUSH-OFF ®)]
[5]; metsulfuron-methyl (BRUSH-OFF) 5 g/ha
  Control (%): 100%
[5]; metsulfuron-methyl (BRUSH-OFF) 10 g/ha
  Control (%): 100%

## COc1cc(OC)nc(NC(=O)NS(=O)(=O)c2ncccc2OCC(F)(F)F)n1 [Trifloxysulfuron Na^+, N-[[(4,6-dimethoxy-2-pyrimidinyl)amino]-carbonyl]-3-(2,2,2-trifluoroethoxy)-2-pyridinesulfonamide]
[1]; [8]
  Crop visual injury at 200 g/ha: 100%
[1]; [9]
  Fresh Weight: 0.0 g
[2]; [8]
  Crop visual injury at 200 g/ha: 0%
[2]; [9]
  Fresh Weight: 50.8 g
[3]; [10]
  Fresh Weight: 1.0 g
[3]; [11]
  % visual injury to corn at 200 g/ha: 100%
[4]; [10]
  Fresh Weight: 86.6 g
[4]; [11]
  Visual crop injury (%) at 200 g/ha: 29%

## CC(C)C1(C)N=C(c2ncccc2C(=O)O)NC1=O (centres unmarked) [Imazapyr]
GAT-HRA maize
  damage from the treatment: no significant damage
Control maize
  damage from the treatment: severely damaged or killed
